# Like-named read-outs stand apart in the source and are kept apart here.
# What was measured:
# SKOV-3 (human ovarian) = assay: SRB assay, in vitro antitumor effect against SKOV-3; assay type: cell-based; details: Homo sapiens; SK-OV-3, 48 hours; read-out: ED50 (the source's name)
# How it was run: (§1)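 Response function is derived from time-zero, control and treated OD values: 100×(T-Tz)/(C-Tz) where T≥Tz and 100×(T-Tz)/Tz where T<Tz. Plates are stained with 0.4% SRB after TCA fixation and read at 520 nm following 48 h compound treatment.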
# SKMEL-2 (human melanoma) = assay: SRB assay, in vitro antitumor effect against SKMEL-2; assay type: cell-based; details: Homo sapiens; SK-MEL-2, 48 hours; read-out: ED50 (the source's name)
# How it was run: as §1
# [1] = Acute toxicity test (LD50), Litchfield-Wilcoxon method; details: mouse, in vivo, ip, male ICR mice, 14 days
# Procedure: Acute toxicity test (LD50): Litchfield-Wilcoxon method.
# 6 weeks old ICR mice(male 30±2.0 g) were fed freely with solid feed and water at room temperature, 23±1° C. and at humidity 60±5%. Sample drugs were injected into the abdominal cavities of mice, while each group comprises 6 mice. Observed during 14 days, external appearances and life or dead were recorded, and then, visible pathogenies were observed from dead animals by dissection. LD50 value was calculated by Litchfiled-wilcoxon method.
# XF 498 (human CNS) = assay: SRB assay, in vitro antitumor effect against XF 498; assay type: cell-based; details: Homo sapiens, XF498; XF-498, 48 hours; read-out: ED50 (the source's name)
# How it was run: as §1
# HCT-15 (human colon) = assay: SRB assay, in vitro antitumor effect against HCT-15; assay type: cell-based; details: Homo sapiens; HCT 15, 48 hours; read-out: ED50 (the source's name)
# How it was run: as §1
# [2] = tested on: A549 (human non-small lung cell); assay: SRB assay, in vitro antitumor effect against A549; assay type: cell-based; details: Homo sapiens
# How it was run: as §1
# [3] = tested on: mouse leukemia P388 cells; assay: In vivo antitumor effects against mouse leukemia P388 cells in BDF1 mice; details: P388, ip, abdominal cavity
# Procedure: In vivo antitumor effects against mouse leukemia P388 cells.
# 1) Leukemia P388 cells being transfer-cultured successively in DBA/2 mouse, were grafted into each mouse of a group comprising 8 mice of 6 week old BDF1 mouse with the dose of 1×10^6 cells/0.1 ml. […]
# 3) With observation everyday, survival times of tested mice were measured. Antitumor activities was determined in such a manner that the increasing ratio(T/C%) of average survival days of drug-treated groups compared with the control group was calculated using the mean survival times of each tested groups.
# [4] = A549, 48 hours, read-out: ED50 (the source's name)
# [5] = nine everyday, read-out: T/C(%)
# [6] = on days 1, 5, 9, read-out: T/C(%)
# [7] = on days 1, 4, 8, read-out: T/C(%)
smiles,measurement,setting,value
"C=Cc1cc(NC(=O)N2CCN(c3cc(OC)cc(OC)c3)CC2)c(OC)nc1C [Example 73, 1-[(2-Methoxy-6-methyl-5-vinylpyridin-3-yl)aminocarbonyl]-4-(3,5-dimethoxyphenyl)piperazine]",IC50,SKOV-3 (human ovarian),0.0054 µg/mL
same,IC50,SKMEL-2 (human melanoma),0.02 µg/mL
same,LD50 at 336 h,[1],250 mg/kg
same,IC50,XF 498 (human CNS),0.013 µg/mL
same,IC50,HCT-15 (human colon),0.012 µg/mL
same,IC50,[2]; [4],0.01 µg/mL
same,response vs control in vivo at 10 mg/kg,[3]; [5],140%
same,response vs control in vivo at 25 mg/kg,[3]; [5],150%
same,response vs control in vivo at 50 mg/kg,[3]; [5],180%
"C=Cc1cc(NC(=O)N2CCN(c3cc(C)cc(C)c3)CC2)c(OC)nc1C [Example 74, 1-[(2-Methoxy-6-methyl-5-vinylpyridin-3-yl)aminocarbonyl]-4-(3,5-dimethylphenyl)piperazine]",IC50,SKOV-3 (human ovarian),0.0138 µg/mL
same,IC50,SKMEL-2 (human melanoma),0.02 µg/mL
same,LD50 at 336 h,[1],361 mg/kg
same,IC50,XF 498 (human CNS),0.026 µg/mL
same,IC50,HCT-15 (human colon),0.021 µg/mL
same,IC50,[2]; [4],0.016 µg/mL
same,response vs control in vivo at 10 mg/kg,[3]; [5],140%
same,response vs control in vivo at 25 mg/kg,[3]; [5],150%
same,response vs control in vivo at 50 mg/kg,[3]; [5],250%
"COc1cc(OC)cc(N2CCN(C(=O)Nc3cc4ccccc4nc3OC)CC2)c1 [Example 81, 1-[(2-Methoxyquinolin-3-yl)aminocarbonyl]-4-(3,5-dimethoxyphenyl)piperazine]",IC50,SKOV-3 (human ovarian),0.0007 µg/mL
same,IC50,SKMEL-2 (human melanoma),0.0107 µg/mL
same,LD50 at 336 h,[1],1600 mg/kg
same,IC50,XF 498 (human CNS),0.0097 µg/mL
same,IC50,HCT-15 (human colon),0.0054 µg/mL
same,IC50,"[2]; A549, 48 h, read-out: ED50",0.0032 µg/mL
same,response vs control in vivo at 10 mg/kg,[3]; [5],140%
same,response vs control in vivo at 25 mg/kg,[3]; [5],140%
same,response vs control in vivo at 50 mg/kg,[3]; [5],210%
same,response vs control in vivo at 50 mg/kg,[3]; [6],127%
same,response vs control in vivo at 100 mg/kg,[3]; [6],146%
same,response vs control in vivo at 200 mg/kg,[3]; [6],218%
"COc1nc2ccccc2cc1NC(=O)N1CCN(c2cc(C)cc(C)c2)CC1 [Example 82, 1-[(2-Methoxyquinolin-3-yl)aminocarbonyl]-4-(3,5-dimethylphenyl)piperazine]",IC50,SKOV-3 (human ovarian),0.0249 µg/mL
same,IC50,SKMEL-2 (human melanoma),0.0754 µg/mL
same,LD50 at 336 h,[1],700 mg/kg
same,IC50,XF 498 (human CNS),0.0479 µg/mL
same,IC50,HCT-15 (human colon),0.0346 µg/mL
same,IC50,[2]; [4],0.0676 µg/mL
same,response vs control in vivo at 50 mg/kg,[3]; [6],100%
same,response vs control in vivo at 100 mg/kg,[3]; [6],127%
"COc1cc(C)c(C)cc1NC(=O)N1CCN(c2cc(C)cc(C)c2)CC1 [Example 172, 1-[(4,5-Dimethyl-2-methoxyphenyl)aminocarbonyl]-4-(3,5-dimethylphenyl)piperazine]",IC50,SKOV-3 (human ovarian),0.0097 µg/mL
same,IC50,SKMEL-2 (human melanoma),0.0233 µg/mL
same,LD50 at 336 h,[1],723 mg/kg
same,IC50,XF 498 (human CNS),0.0086 µg/mL
same,IC50,HCT-15 (human colon),0.018 µg/mL
same,IC50,[2]; [4],0.0047 µg/mL
same,response vs control in vivo at 50 mg/kg,[3]; [7],118%
same,response vs control in vivo at 100 mg/kg,[3]; [7],127%
same,response vs control in vivo at 200 mg/kg,[3]; [7],191%
